# Source: the supplement of paper PMC4858399
# How the values were obtained:
# Conditions in all cases: exposure time 48 h
# [1] = tested on: Caenorhabditis elegans N2; assay: AC50 for larval growth inhibition (Hill fit); higher = less potent
# Method in brief: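 Synchronised C. elegans N2 L1 larvae, 50 per well in 96-well plates, were grown at 20°C for 48 h in K-medium with killed OP50, 1% DMSO and 0.5–200 µM chemical. Worm size was read on a COPAS Biosort as extinction, log-transformed and averaged per well, and only wells holding at least 10 worms were kept. AC50 was obtained by a constrained Hill fit using weighted genetic-algorithm regression, with out-of-range values censored.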
# [2] = tested on: Caenorhabditis elegans N2; assay: mean nematode size ln(EXT) after 48 h, plate-adjusted (DMSO control set to 6) (ln(EXT), control-adjusted); higher = larger nematodes / less growth inhibition
# Method in brief: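 In K-medium with killed OP50, 1% DMSO and 0.5–200 µM chemical, synchronised N2 L1 larvae of C. elegans (50 per well) grew for 48 h at 20°C. Extinction was read for every worm on the Biosort, with debris removed by a growth model. Natural-log values averaged per well gave mean size, which was corrected per plate by subtracting the vehicle control mean and adding 6.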
# [3] = tested on: Caenorhabditis elegans N2; assay: lowest effective concentration for larval growth inhibition (size below effect threshold); higher = less potent
# Method in brief: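 Worm size was taken as per-worm extinction on the Biosort, log-transformed and turned into well means. The larvae (C. elegans N2, L1 stage, 50 per 96-well) had spent 48 h at 20°C in K-medium with killed bacteria, 1% DMSO and 0.5, 1, 5, 10, 50, 100 or 200 µM chemical. The lowest effective concentration marks the first dose where the plate-adjusted mean size drops under a cutoff and remains under it at every higher dose; the cutoff is 5.665.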
SMILES,AC50 for larval growth inhibition [1],mean nematode size ln(EXT) (ln) ([2]; 0.5 µM),mean nematode size ln(EXT) (ln) ([2]; 1 µM),mean nematode size ln(EXT) (ln) ([2]; 5 µM),mean nematode size ln(EXT) (ln) ([2]; 10 µM),mean nematode size ln(EXT) (ln) ([2]; 50 µM),mean nematode size ln(EXT) (ln) ([2]; 100 µM),mean nematode size ln(EXT) (ln) ([2]; 200 µM),lowest effective concentration [3]
Cc1c(F)c(F)c(COC(=O)[C@@H]2[C@H](/C=C(\Cl)C(F)(F)F)C2(C)C)c(F)c1F (racemic) [Tefluthrin],> 200 µM,5.7,5.77,5.71,5.79,5.39,5.29,5.13,50 µM
"ClC1=C(Cl)[C@]2(Cl)[C@@H]3[C@@H](Cl)[C@H]4O[C@H]4[C@@H]3[C@@]1(Cl)C2(Cl)Cl (single isomer, unassigned; isomer b) [Heptachlor epoxide, isomer B]",7.71 µM,5.72,5.69,5.48,5.44,5.2,5.14,5.11,5 µM
"OCCC(F)(F)C(F)(F)C(F)(F)C(F)(F)C(F)(F)C(F)(F)C(F)(F)C(F)(F)F [1,1,2,2-Tetrahydroperfluoro-1-decanol]",> 200 µM,5.86,5.67,5.72,5.62,5.54,5.37,4.6,10 µM
"Clc1cccc(Cl)c1Cl [1,2,3-Trichlorobenzene]",122 µM,6.08,6.04,6.06,6.07,6.02,5.98,3.55,200 µM
"Clc1cc(Cl)c(Cl)cc1Cl [1,2,4,5-Tetrachlorobenzene]",110 µM,5.97,5.98,6.07,6.11,5.34,4.83,3.82,50 µM
"Clc1ccc(Cl)c(Cl)c1 [1,2,4-Trichlorobenzene]",186 µM,5.82,5.79,5.69,5.76,5.66,5.84,4.27,200 µM
"O=Cc1ccccc1C=O [1,2-Benzenedicarboxaldehyde]",62 µM,5.83,5.92,5.82,5.93,5.24,4.04,3.73,50 µM
"O=c1[nH]sc2ccccc12 [1,2-Benzisothiazolin-3-one]",> 200 µM,5.72,5.71,5.73,5.74,5.69,5.5,5.48,100 µM
"O=[N+]([O-])c1ccc(Cl)c(Cl)c1 [1,2-Dichloro-4-nitrobenzene]",111 µM,5.95,5.94,5.93,5.99,5.79,5.66,5.54,100 µM
"c1ccc(NNc2ccccc2)cc1 [1,2-Diphenylhydrazine]",78.8 µM,5.81,5.72,5.71,5.69,5.22,4.11,3.42,50 µM
"Nc1ccccc1N [1,2-Phenylenediamine]",> 200 µM,5.84,5.95,5.92,5.74,5.66,5.46,5.19,50 µM
"CC1(C)C(=O)N(Br)C(=O)N1Br [1,3-Dibromo-5,5-dimethylhydantoin]",> 200 µM,5.7,5.78,5.81,5.86,5.87,5.87,5.61,200 µM
"CC(C)c1cccc(C(C)C)c1 [1,3-Diisopropylbenzene]",175 µM,6.02,5.98,5.99,6.07,6.21,6.12,5.46,200 µM
"NC(=Nc1ccccc1)Nc1ccccc1 [1,3-Diphenylguanidine]",16.6 µM,5.67,5.74,5.62,5.6,5.63,5.64,5.55,5 µM
"CC(C)(C)c1cc(O)c(C(C)(C)C)cc1O [1,4-Benzenediol, 2,5-bis(1,1-dimethylethyl)-]",113 µM,5.85,5.93,5.73,5.79,5.7,4.85,3.48,100 µM
"Clc1ccc(Cl)cc1 [1,4-Dichlorobenzene]",> 200 µM,5.89,5.93,5.94,5.84,5.84,5.73,5.58,200 µM
"C1=CCCC=CCCC=CCC1 [1,5,9-Cyclododecatriene]",> 200 µM,5.89,5.9,5.9,5.83,5.92,5.86,5.34,200 µM
"O=C(OCCCCCOC(=O)c1ccccc1)c1ccccc1 [1,5-Pentanediol,1,5-dibenzoate]",> 200 µM,5.88,5.89,5.84,5.85,5.86,5.98,5.48,200 µM
"O=C=NCCCCCCN=C=O [1,6-Diisocyanatohexane]",> 200 µM,5.82,5.86,5.84,5.84,5.94,5.93,5.66,200 µM
CCCCCCCCCCO [1-Decanol (Decanol)],143 µM,5.95,5.91,5.83,5.85,5.79,5.69,3.42,200 µM
